Columns and labels:
MDA-MB-468 = assay: Cancer cell viability assay (MTT), MDA-MB-468; format: cell-based; conditions: Homo sapiens, 72 hrs, 10% FBS media
Procedure: (§1) Breast cancer and glioblastoma cell lines were plated 4000 cells/well in 96-well plates in the presence of 10% FBS media. The following day cells were treated with various concentrations of example compounds (0.1% DMSO final) and incubated for 72 hrs. After the incubation An MTT assay was performed to access cell viability. Percent of viability was determined using DMSO vehicle and no cell (blank) controls.

MDA-MB-231 cells = assay: Breast cancer cell viability assay (Alamar Blue); format: cell-based; conditions: Homo sapiens, 72 hrs, 10% FBS media containing 25 nM selenite
Procedure: MDA-MB-231 cells were plated 2000 cells/well in 96-well black optical plates in the presence of 10% FBS media containing 25 nM selenite. The following day cells were treated with various concentrations of compounds (0.1% DMSO final) and incubated for 72 hrs. After the incubation Alamar Blue reagent was added to each well and incubated for additional 3 hrs. Fluorescence was read ex:530 nm/em:590 nm, and percent of viability was determined using DMSO vehicle and no cell (blank) controls.

[1] = target: recombinant gluthathione reductase (GR) (Homo sapiens (Human), UniProt P00390); assay: Inhibition of recombinant GR (GSSG assay); format: biochemical; conditions: 2 nM GR, 250 μM NADPH, 15 minutes incubation, O.D. 340 nm
Procedure: (§2) Small molecule inhibition of recombinant thioredoxin reductase 1 (TrxR1) and gluthathione reductase (GR) was examined in 96-well plate format. 30 nM TrxR1 was incubated in the presence of 250 μM NADPH, 0.1 mg/ml BSA, and various concentrations of compound (1% DMSO final) in 50 mM Tris (pH 7.5) and 2 mM EDTA buffer for 15 minutes. Following the incubation period, 2 mM DTNB was added to each well and the change in O.D. at 412 nm was followed. Percent activity was determined using DMSO vehicle and no TrxR1 (blank) controls. 2 nM GR was incubated in the presence of 250 μM NADPH, 0.1 mg/ml BSA, and various concentrations of compounds (1% DMSO final) in 50 mM Tris (pH 7.5) and 2 mM EDTA buffer for 15 minutes. Following the incubation period, 1 mM GSSG was added to each well and the change in O.D. at 340 nm was followed. Percent activity was determined using DMSO vehicle and no GR (blank) controls.

MDA-MB-231 = assay: Cancer cell viability assay (MTT), MDA-MB-231; format: cell-based; conditions: Homo sapiens, 72 hrs, 10% FBS media
Procedure: as §1

U-87 MG = assay: Cancer cell viability assay (MTT), U-87 MG; format: cell-based; conditions: Homo sapiens, 72 hrs, 10% FBS media
Procedure: as §1

[2] = target: recombinant thioredoxin reductase 1 (TrxR1) (Homo sapiens (Human), UniProt Q16881); assay: Inhibition of recombinant TrxR1 (DTNB assay); format: biochemical; conditions: 30 nM TrxR1, 250 μM NADPH, 15 minutes incubation, O.D. 412 nm, read-out: TrxR Assay IC50
Procedure: as §2

Chain of recombinant gluthathione reductase (GR) (P00390 44-522): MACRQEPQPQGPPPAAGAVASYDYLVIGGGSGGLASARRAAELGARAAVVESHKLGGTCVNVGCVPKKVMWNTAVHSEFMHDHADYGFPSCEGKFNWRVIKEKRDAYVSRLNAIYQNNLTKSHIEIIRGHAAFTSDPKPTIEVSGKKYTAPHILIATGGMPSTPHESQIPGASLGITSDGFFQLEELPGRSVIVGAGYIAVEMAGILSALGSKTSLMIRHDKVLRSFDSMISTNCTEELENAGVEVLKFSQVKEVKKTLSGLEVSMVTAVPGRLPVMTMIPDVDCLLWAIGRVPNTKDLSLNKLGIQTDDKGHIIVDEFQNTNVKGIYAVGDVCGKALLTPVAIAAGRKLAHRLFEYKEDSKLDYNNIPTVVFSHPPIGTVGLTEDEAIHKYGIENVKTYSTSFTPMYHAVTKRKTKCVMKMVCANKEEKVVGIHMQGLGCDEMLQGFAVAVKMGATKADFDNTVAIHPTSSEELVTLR
Chain of recombinant thioredoxin reductase 1 (TrxR1) (Q16881 151-649): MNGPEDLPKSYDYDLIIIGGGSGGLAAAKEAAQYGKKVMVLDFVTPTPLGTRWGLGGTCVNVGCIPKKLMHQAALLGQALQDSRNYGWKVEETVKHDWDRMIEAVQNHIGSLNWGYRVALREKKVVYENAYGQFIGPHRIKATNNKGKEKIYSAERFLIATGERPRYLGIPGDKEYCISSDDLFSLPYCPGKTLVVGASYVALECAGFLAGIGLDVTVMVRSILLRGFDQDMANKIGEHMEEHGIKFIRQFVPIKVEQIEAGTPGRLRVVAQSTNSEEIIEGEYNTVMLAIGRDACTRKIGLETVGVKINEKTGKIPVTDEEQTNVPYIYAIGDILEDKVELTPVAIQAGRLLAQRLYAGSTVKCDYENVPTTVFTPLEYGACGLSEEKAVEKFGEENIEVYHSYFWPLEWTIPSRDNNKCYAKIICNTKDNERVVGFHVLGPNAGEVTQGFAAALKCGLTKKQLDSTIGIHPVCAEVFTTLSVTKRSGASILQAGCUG

IC50 (MDA-MB-468) [µM] | IC50 (MDA-MB-231 cells) [µM] | IC50 [1] [µM] | IC50 (MDA-MB-231) [µM] | IC50 (U-87 MG) [µM] | IC50 [2] [µM] | Structure (SMILES)
4.14 | 4.53 | > 100 | 8.94 | 8.89 | 0.093 | COc1ccc([N+](=O)[O-])c(S(=O)(=O)C2CCOC2C)n1 (stereo not shown) [Example 1]
4 | 12.3 | > 100 | 9.97 | 10.6 | 0.391 | COc1ccc([N+](=O)[O-])c(S(=O)(=O)C2CCN(C(C)=O)CC2)n1 [Example 2, 1-(4-((6-methoxy-3-nitropyridin-2-yl)sulfonyl)piperidin-1-yl)ethan-1-one]
4.34 | 5.08 | > 100 | 7.53 | 6.11 | 0.0391 | COc1ccc([N+](=O)[O-])c(S(=O)(=O)C2CCOCC2)n1 [Example 3, 6-methoxy-3-nitro-2-((tetrahydro-2H-pyran-4-yl)sulfonyl)pyridine]
2.1 |  | > 100 | 3.54 | 9.27 | 1.01 | COc1ccc([N+](=O)[O-])c([S+]([O-])C2CCOC2C)n1 (stereo not shown) [Example 4, 6-Methoxy-2-(2-methyl-tetrahydro-furan-3-ylsulfinyl)-3-nitro-pyridine]
2.4 |  | > 100 | 3.57 |  | 4.33 | COc1ccc([N+](=O)[O-])c([S+]([O-])C2CCOCC2)n1 (stereo not shown) [Example 5, 6-Methoxy-3-nitro-2-(tetrahydro-pyran-4-ylsulfinyl)-pyridine]
5.58 |  | > 100 | 11.6 |  | 4.06 | COc1ccc([N+](=O)[O-])c([S+]([O-])C2CCN(C(C)=O)CC2)n1 (stereo not shown) [Example 6, 1-[4-(6-Methoxy-3-nitro-pyridin-2-ylsulfinyl)-piperidin-1-yl]-ethanone]
